Assay results reported in patent publication US20230279346A1, “METHODS OF DIFFERENTIATION TO NEURONAL CELLS AND KITS THEREFOR” (priority 2016, published 2023).

Tests used:
H9 ESC-derived NSCs [1] = assay: Cell toxicity during differentiation of NSCs; type: cell-based, human; settings: 160 micromolar
Excerpt: (§3) Cells cultured in differentiation medium without the presence of the gamma-secretase inhibitor served as a control. In the test groups, cells were separately differentiated in the presence of Compound E at 0.2 micromolar, YO-01027 at concentrations of 0.3 micromolar, 1.5 micromolar and 7.5 micromolar, LY411575 at concentrations of 0.01 micromolar, 0.05 micromolar, 0.25 micromolar, 0.5 micromolar, 1.0 micromolar and 2.0 micromolar, and MK-0752 at concentrations of 0.8 micromolar, 4 micromolar, 20 micromolar, 40 micromolar and at 80 micromolar. Eight wells were tested for each concentration of each inhibitor.
At the end of a two week period of differentiation, the area of cell clumps was calculated for each test well using the [sequence]

H9 ESC-derived NSCs [2] = assay: Cell clump area after neuronal differentiation (INCUCYTE ZOOM System); type: cell-based, human; settings: for cell clumping vs control group (cell clump area, FIG. 6): two weeks, Compound E 0.2, YO-01027 0.3, LY411575 0.25, MK-0752 20 micromolar, p<0.01
Protocol: Also, at the end of that two week period of differentiation, the area of cell clumps was calculated using the [sequence] ZOOM™ System (Essen BioScience, Ann Arbor Mich.) by defining the area of cell mass ≥10,000 μm^2 as a cell clump.
as §3
At the end of a two week period of differentiation, the area of cell clumps was calculated for each test well using the [sequence] ZOOM™ System (Essen BioScience, Ann Arbor Mich.) by defining the area of cell mass ≥10,000 μm2 as a cell clump and the data plotted in FIG. 6.

H9 ESC-derived NSCs [3] = assay: Immunofluorescent image analysis: cells positive for HuC/D and negative for SOX1; type: cell-based, human
Excerpt: as §3

H9 ESC-derived NSCs [4] = assay: EdU incorporation proliferation assay (CLICK-IT EdU); type: cell-based, human; settings: Day 6 of differentiation, EdU 24 h; 0.2 micromolar
Protocol: (§1) Differentiation of H9 ESC-derived NSCs was the same as for Example 2. At Day 6 of differentiation, cells were incubated with the nucleoside thymidine analog EdU for 24 h. EdU is incorporated into DNA during active DNA synthesis with the result that proliferating cells become labeled. EdU positive cells were detected using the CLICK-IT™ EdU Alexa FLUOR™ 488 HCS Assay (Cat. No. C10350, Thermo Fisher Scientific, Waltham Mass.) according to the manufacturer's protocols. Cells were then fixed with 4% paraformaldehyde and stained with antibodies against the apoptotic cell death marker caspase 9 (polyclonal, Cat. No. PA5-16358, Thermo Fisher Scientific, Waltham Mass.) according to the manufacturer's protocol.

H9 ESC-derived NSCs [5] = assay: Caspase 9 staining for apoptotic cell death; type: cell-based, human; settings: six days of differentiation; 0.2 micromolar
Protocol: as §1

[6] = system: primary rat cortical neuronal cells; assay: Differentiation of primary rat cortical neuronal cells, GFAP and HuC&D staining; type: cell-based; settings: two weeks of differentiation
Excerpt: Cryopreserved primary rat cortical neuronal cells (Cat. No. A1084001, Thermo Fisher Scientific, Waltham Mass.), which had been isolated from rodent embryonic brain, were thawed and plated on poly-D-lysine 96-well plates (Cat. No. 08-774-255, Thermo Fisher Scientific, Waltham Mass.) coated with laminin (Cat. No. 23017, Thermo Fisher Scientific, Waltham Mass.) at a density of 8×10^4 cells/cm2. The culture medium was neuronal differentiation medium containing NEUROBASAL™ Medium (Cat. No. 21103, Thermo Fisher Scientific, Waltham Mass.), 2% B27 Supplement (Cat. No. 17504, Thermo Fisher Scientific, Waltham Mass.), 1% GLUTAMAX™ Supplement (Cat. No. 35050, Thermo Fisher Scientific, Waltham Mass.) without or with gamma secretase inhibitor Compound E. Every 2-3 days, half spent medium was removed from each well of the culture plates and the same volume of fresh medium was added into each well. At two weeks of differentiation, cells were fixed with 4% paraformaldehyde and stained with antibodies against neuronal marker HuC&D and astroglial marker glial fibrillary acidic protein (GFAP).

H9 ESC-derived NSCs [7] = assay: Long-term maintenance of differentiated neuronal cells; type: cell-based, human; settings: 0.2 micromolar; without inhibitor cells detached at three weeks
Excerpt: (§2) To differentiate the NSCs into neuronal cells, cryo-preserved H9 ESC-derived NSCs were thawed and plated on poly-D-lysine 96-well plates (Cat. No. 08-774-255, Thermo Fisher Scientific, Waltham Mass.) coated with laminin (Cat. No. 23017, Thermo Fisher Scientific, Waltham Mass.) at a density of 5×10^4 cells/cm2. The cultures were maintained in the neuronal differentiation medium containing NEUROBASAL™ Medium (Cat. No. 21103, Thermo Fisher Scientific, Waltham Mass.), 2% B27 Supplement (Cat. No. 17504, Thermo Fisher Scientific, Waltham Mass.), 1% GLUTAMAX™ Supplement (Cat. No. 35050, Thermo Fisher Scientific, Waltham Mass.) and 200 micromolar ascorbic acid (Cat. No. A8960, Sigma-Aldrich, St. Louis Mo.) with or without the gamma-secretase inhibitor Compound E (0.2 micromolar, Cat. No. 565790, EMD Millipore, Billerica Mass.). Every 2-3 days, half spent medium was removed from each well of the culture plates and the same volume of fresh medium was added into each well.
For this study, the differentiation of H9 ESC-derived NSCs was the same as for Example 2. Without presence of the gamma secretase inhibitor during differentiation, neuronal cells detached from the culture plate at three weeks after differentiation as shown by the image of FIG. 7A. This effect may be due to the very high density of proliferated neural stem cells present. […]

iPSC-derived NSCs = assay: Differentiation of iPSC-derived NSCs, phase images and NESTIN/DCX staining; type: cell-based, human; settings: 0.1 micromolar
Excerpt: Human induced pluripotent stem cells were derived from human fibroblasts using the CYTOTUNE™-iPS 2.0 Sendai Reprogramming Kit (Cat. No. A16517, INVITROGEN™, a part of Thermo Fisher Scientific, Waltham Mass.) and were induced to neural stem cells (NSCs) using the xeno free version of the GIBCO™ PSC Neural Induction Medium (Cat. No. A1647801, Thermo Fisher Scientific, Waltham Mass.).
To differentiate the NSCs into neuronal cells, cryo-preserved iPSC-derived NSCs were recovered and NSC passage three cells were plated on a 24 well plate (Cat. No. 087721, Thermo Fisher Scientific, Waltham Mass.) coated with human laminin (Cat. No. L6274, Sigma-Aldrich, St. Louis Mo.) at a density of 1˜5×10^4 cells/cm2. The cultures were maintained in neuronal differentiation medium containing NEUROBASAL™ Medium (Cat. No. 21103, Thermo Fisher Scientific, Waltham Mass.), 2% B27 Xeno Free Supplement (Cat. No. A1486701, Thermo Fisher Scientific, Waltham Mass.), 200 micromolar ascorbic acid (Cat. No. A8960, Sigma-Aldrich, St. Louis Mo.) with or without the gamma-secretase inhibitor Compound E (0.1 micromolar, Cat. No. 565790, EMD Millipore, Billerica Mass.). Every 2-3 days, medium was replenished with respective medium.
[…] No. 48-1200, Thermo Fisher Scientific, Waltham Mass.) and the neural stem cell marker NESTIN (Monoclonal, Cat. No. 611658, BD Biosciences, Franklin Lakes N.J.) according to the manufacturers' protocols.

NSC cultures = assay: CYQUANT Direct Cell Proliferation Assay; type: cell-based
Protocol: The proliferation and electrophysiology of cells resulting from differentiation in the presence of Compound E were compared to NSC control cultures. NSC cultures were plated at 20,000 cells per well on Day 0.
The CYQUANT™ Direct Cell Proliferation Assay (Molecular Probes Cat. No. C35011, Eugene Oreg.) was used to provide quantitation of proliferation at Day 4 and Day 7 of culture.

[8] = system: H9 human ESC-derived NSCs; assay: Differentiation of H9 ESC-derived NSCs, phase-contrast images and MAP2/SOX1 staining; type: cell-based; settings: Day 14; 0.2 micromolar
Excerpt: as §2
At two weeks of NSC differentiation into neuronal cells, cells were fixed with 4% paraformaldehyde and stained with antibodies against neuronal marker MAP2 (polyclonal, Cat. No. PA5-17646, Thermo Fisher Scientific, Waltham Mass.) and neural stem cell marker SOX1 (polyclonal, Cat. No. AF3369, R&D Systems, Minneapolis Minn.) according to the manufacturers' protocols.

## O=C(O)CC[C@H]1CC[C@@](c2cc(F)ccc2F)(S(=O)(=O)c2ccc(Cl)cc2)CC1 [MK-0752]
H9 ESC-derived NSCs [1]
  cell toxicity: cell toxicity
H9 ESC-derived NSCs [2]
  cell clumping vs control group (cell clump area, FIG. 6): significant reduction in cell clumping
H9 ESC-derived NSCs [3]; at 20 micromolar
  percentage of cells co-stained positive for HuC/D and negative for SOX1: 64.7%

## C[C@H](NC(=O)Cc1cc(F)cc(F)c1)C(=O)N[C@H]1N=C(c2ccccc2)c2ccccc2N(C)C1=O [YO-01027, (S,S)-2-[2-(3,5-difluorophenyl)-acetylamino]-N-(1-methyl-2-oxo-5-phenyl-2-,3-dihydro-1H-benzo[e][1,4]diazepin-3-yl)-propionamide]
H9 ESC-derived NSCs [3]; at 0.3 micromolar
  percentage of cells co-stained positive for HuC/D and negative for SOX1: 73.4%

## C[C@H](NC(=O)Cc1cc(F)cc(F)c1)C(=O)N[C@H]1N=C(c2ccccc2)c2ccccc2N(C)C1=O [Compound E, (S,S)-2-[2-(3,5-difluorophenyl)-acetylamino]-N-(1-methyl-2-oxo-5-phenyl-2-,3-dihydro-1H-benzo[e][1,4]diazepin-3-yl)-propionamide]
H9 ESC-derived NSCs [4]
  proliferation of neural stem cells (EdU positive cells): substantially arrested
H9 ESC-derived NSCs [5]
  cell death (caspase 9 positive cells): no significant amount of cell death
H9 ESC-derived NSCs [2]; Compound E 0.2 micromolar, two weeks of differentiation, cell mass >=10,000 μm2 counted as clump, vs without inhibitor
  reduction in cell clumping: 90%
H9 ESC-derived NSCs [2]
  cell clumping vs control group (cell clump area, FIG. 6): significant reduction in cell clumping
[6]
  GFAP positive astrocytes: essentially eliminated
H9 ESC-derived NSCs [7]
  time differentiated neuronal cells can be maintained in culture: at least five weeks
iPSC-derived NSCs; Day 5
  neurite outgrowth (phase-contrast): extended neurite outgrowth
iPSC-derived NSCs; Day 7
  neuronal phenotype (DCX stain): most of the cells present have adopted a neuronal phenotype
  proliferation of NESTIN positive cells: substantially retarded
iPSC-derived NSCs; Day 14
  proliferating progenitor cells: fewer proliferating progenitor cells are present
NSC cultures; Day 4
  reduction in cell count vs control culture: ~2.5 fold
NSC cultures; Day 4, control 0.93
  relative fluorescence units (cell proliferation): 0.36 RFU
NSC cultures; Day 7, control 2.94
  relative fluorescence units (cell proliferation): 0.55 RFU
NSC cultures; Day 7 vs Day 4
  increase in RFU at Day 7 compared to Day 4: ~1.5 fold
NSC cultures; Day 14, control 18.7
  relative fluorescence units (cell proliferation): 0.41 RFU
NSC cultures; Day 21, control 21.5
  relative fluorescence units (cell proliferation): 0.30 RFU
H9 ESC-derived NSCs [3]; at 0.2 micromolar
  percentage of cells co-stained positive for HuC/D and negative for SOX1: 74.9%
[8]
  cell clump formation (phase-contrast image): without formation of cell clumps

## C[C@H](NC(=O)[C@@H](O)c1cc(F)cc(F)c1)C(=O)N[C@@H]1C(=O)N(C)c2ccccc2-c2ccccc21 [LY411575, N-2((2S)-2-(3,5-difluorophenyl)-2-hydroxyethanoyl)-N1-((7S)-5-methyl-6-oxo-6,7-dihydro-5H-dibenzo[b,d]azepin-7-yl)-1-alaninamide]
H9 ESC-derived NSCs [2]
  cell clumping vs control group (cell clump area, FIG. 6): significant reduction in cell clumping
H9 ESC-derived NSCs [3]; at 0.25 micromolar
  percentage of cells co-stained positive for HuC/D and negative for SOX1: 64.7%
